ChEMBL document CHEMBL1201862, “PubChem BioAssay data set” (2004)
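Compound exposure: 48 hours, 5 concentrations, 96-well plates. GI50 is the concentration that inhibits growth by half.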 The source made the active and inactive calls. Cut-off read from the data, not from the text of the source: active = GI50 up to about 1.1 µM and inactive = higher.

What was measured:
Test in all cases: DTP human tumour cell line panel, 48 h
A498 = system: A498
A549 = system: A549
CAKI-1 = system: CAKI-1
CCRF-CEM = system: CCRF-CEM
COLO 205 = system: COLO 205
DLD-1 = system: DLD-1
DMS-114 = system: DMS-114
DMS-273 = system: DMS-273
EKVX = system: EKVX
HCC 2998 = system: HCC 2998
HCT-116 = system: HCT-116
HCT-15 = system: HCT-15
HL-60 = system: HL-60
HOP-18 = system: HOP-18
HOP-62 = system: HOP-62
HOP-92 = system: HOP-92
HT-29 = system: HT-29
IGROV-1 = system: IGROV-1
K562 = system: K562
KM-20L2 = system: KM-20L2
KM12 = system: KM12
LOX IMVI = system: LOX IMVI
M19-MEL = system: M19-MEL
MCF7 = system: MCF7
MOLT-4 = system: MOLT-4
Malme-3M = system: Malme-3M
NCI-H226 = system: NCI-H226
NCI-H23 = system: NCI-H23
NCI-H460 = system: NCI-H460
NCI-H522 = system: NCI-H522
NCI/ADR-RES = system: NCI/ADR-RES
OVCAR-3 = system: OVCAR-3
OVCAR-4 = system: OVCAR-4
OVCAR-5 = system: OVCAR-5
OVCAR-8 = system: OVCAR-8
RPMI-8226 = system: RPMI-8226
RXF 393 = system: RXF 393
SF-268 = system: SF-268
SF-295 = system: SF-295
SF-539 = system: SF-539
SK-MEL-28 = system: SK-MEL-28
SK-MEL-2 = system: SK-MEL-2
SK-MEL-5 = system: SK-MEL-5
SK-OV-3 = system: SK-OV-3
SN12C = system: SN12C
SNB-19 = system: SNB-19
SNB-75 = system: SNB-75
SNB-78 = system: SNB-78
SW-620 = system: SW-620
U-251 = system: U-251
UACC-257 = system: UACC-257
UACC-62 = system: UACC-62
UO-31 = system: UO-31
XF498 = system: XF498

For `O=C1NC(c2cccc3ccccc23)Nc2ccc(O)cc21` (centres undefined), the GI50 (A498) was 23.9 µM (inactive), the GI50 (A549) was 33.4 µM (inactive) and the GI50 (CAKI-1) was 30.5 µM (inactive). The GI50 (CCRF-CEM) was 20.2 µM (inactive), the GI50 (COLO 205) was 34.1 µM (inactive) and the GI50 (DLD-1) was 33.5 µM (inactive). For the same compound, the GI50 (DMS-114) was 7.35 µM (inactive), the GI50 (DMS-273) was 10.4 µM (inactive) and the GI50 (EKVX) was 42.3 µM (inactive). For the same compound, the GI50 (HCC 2998) was 27.2 µM (inactive), the GI50 (HCT-116) was 32.1 µM (inactive) and the GI50 (HCT-15) was 11 µM. The GI50 (HL-60) was 6.14 µM (inactive), the GI50 (HOP-18) was 43.3 µM (inactive) and the GI50 (HOP-62) was 31.8 µM (inactive). The GI50 (HOP-92) was 35 µM (inactive), the GI50 (HT-29) was 40.5 µM (inactive) and the GI50 (IGROV-1) was 35.1 µM (inactive). The GI50 (K562) was 8.57 µM (inactive), the GI50 (KM-20L2) was 40.3 µM (inactive) and the GI50 (KM12) was 23.4 µM (inactive). For the same compound, the GI50 (LOX IMVI) was 16.2 µM (inactive), the GI50 (M19-MEL) was 28.6 µM (inactive) and the GI50 (MCF7) was 16.1 µM (inactive). For the same compound, the GI50 (MOLT-4) was 9.48 µM (inactive), the GI50 (Malme-3M) was 24.4 µM (inactive) and the GI50 (NCI-H226) was 19.5 µM (inactive). For the same compound, the GI50 (NCI-H23) was 34 µM (inactive), the GI50 (NCI-H460) was 28 µM (inactive) and the GI50 (NCI-H522) was 22.3 µM (inactive). The GI50 (NCI/ADR-RES) was 16 µM (inactive), the GI50 (OVCAR-3) was 24.5 µM (inactive) and the GI50 (OVCAR-4) was 1.1 µM (active). For the same compound, the GI50 (OVCAR-5) was 32.6 µM (inactive), the GI50 (OVCAR-8) was 36.9 µM (inactive) and the GI50 (RPMI-8226) was 24.2 µM (inactive). The GI50 (RXF 393) was 31 µM (inactive), the GI50 (SF-268) was 35.6 µM (inactive) and the GI50 (SF-295) was 27.5 µM (inactive). For the same compound, the GI50 (SF-539) was 33 µM (inactive), the GI50 (SK-MEL-28) was 47.1 µM (inactive) and the GI50 (SK-MEL-2) was 20.4 µM (inactive). For the same compound, the GI50 (SK-MEL-5) was 23.8 µM (inactive), the GI50 (SK-OV-3) was 41.1 µM (inactive) and the GI50 (SN12C) was 39.9 µM (inactive). The GI50 (SNB-19) was 58.1 µM (inactive), the GI50 (SNB-75) was 38.6 µM (inactive) and the GI50 (SNB-78) was 40.3 µM (inactive). The GI50 (SW-620) was 17.6 µM (inactive), the GI50 (U-251) was 38.8 µM (inactive) and the GI50 (UACC-257) was 23.4 µM (inactive). The GI50 (UACC-62) was 21 µM (inactive), the GI50 (UO-31) was 30.2 µM (inactive) and the GI50 (XF498) was 24.7 µM (inactive).
